{"source": "patent US20250144067A1", "about": "“PERSONALIZED STARVATION THERAPY FOR CANCER” (Faeth Therapeutics, Inc., priority 2021, published 2025)", "key": {"[1]": {"system": "NCI-H292 lung cancer cells", "assay": "FDA drug screening, complete media vs cholesterol-free media without statin (TABLE 1)", "type": "cell-based, human"}, "[2]": {"system": "NCI-H292 lung cancer cells", "assay": "FDA drug screening, complete media vs cholesterol-free media with simvastatin (TABLE 2)", "type": "cell-based, human", "settings": "for Cholesterol-free media + simvastatin (0.04 μM) / Complete Media: NCI-H292 cells"}, "[3]": {"settings": "Complete minus Cholesterol-free, greater than 0 enhanced anti-cancer activity, about 0 neutral, below 0 antagonists"}, "[4]": {"settings": "NCI-H292 cells in cholesterol-free media without statin"}, "[5]": {"settings": "NCI-H292 cells in complete media"}, "[6]": {"settings": "FDA drug library screen, cholesterol-free media with simvastatin 0.04 μM"}, "[7]": {"settings": "FDA drug library screen, complete media"}, "[8]": {"settings": "complete media minus cholesterol-free media + simvastatin, >0 enhanced anti-cancer activity, about 0 neutral, <0 antagonist"}, "[9]": {"settings": "Complete minus Cholesterol-free, >0 enhanced anti-cancer activity, about 0 neutral, <0 antagonist"}, "[10]": {"settings": "NCI-H292 cells, cholesterol-free media without statin, FDA drug library screen"}, "[11]": {"settings": "NCI-H292 cells, complete media, FDA drug library screen"}, "[12]": {"settings": "complete media vs cholesterol-free media + simvastatin (0.04 μM), >0 enhanced anti-cancer activity, about 0 neutral, <0 antagonist"}, "[13]": {"settings": "Complete minus Cholesterol-free, […]"}, "[14]": {"settings": "NCI-H292 cells, cholesterol-free media without statin"}, "[15]": {"settings": "FDA library drug in cholesterol-free media with simvastatin 0.04 μM"}, "[16]": {"settings": "FDA library drug in complete media"}, "[17]": {"settings": "complete media vs cholesterol-free media + simvastatin (0.04 μM), […]"}, "[18]": {"settings": "NCI-H292 cells, FDA drug library screen, cholesterol-free media without statin"}, "[19]": {"settings": "NCI-H292 cells, FDA drug library screen, complete media"}, "[20]": {"settings": "cholesterol-free media with simvastatin 0.04 μM, FDA drug library screen (TABLE 2)"}, "[21]": {"settings": "complete media, FDA drug library screen (TABLE 2)"}, "[22]": {"settings": "complete media minus cholesterol-free media + simvastatin (0.04 μM), >0 enhanced anti-cancer activity, about 0 neutral, <0 antagonist"}, "[23]": {"settings": "Complete minus Cholesterol-free, greater than 0 enhanced anti-cancer activity, about 0 neutral, below 0 antagonist"}, "[24]": {"settings": "complete vs cholesterol-free media, >0 enhanced anti-cancer activity, about 0 neutral, <0 antagonist"}}, "note": "Structures can show the parent of a compound that is named as a salt."}
{"smiles": "CC[C@@H]([C@H](C)O)n1ncn(-c2ccc(N3CCN(c4ccc(OC[C@@H]5CO[C@@](Cn6cncn6)(c6ccc(F)cc6F)C5)cc4)CC3)cc2)c1=O", "note": "[Posaconazole]", "values": [{"measurement": "Difference", "setting": "[1]; [3]", "result": "−0.60"}, {"measurement": "Cholesterol-free", "setting": "[1]; [4]", "result": 1.481}, {"measurement": "Complete", "setting": "[1]; [5]", "result": 0.8852}, {"measurement": "Cholesterol-free media + simvastatin (0.04 μM)", "setting": "[2]; [6]", "result": 1.5}, {"measurement": "Complete Media", "setting": "[2]; [7]", "result": 1.904}, {"measurement": "Difference", "setting": "[2]; [8]", "result": 0.40}]}
{"smiles": "C#CCC(Cc1cnc2nc(N)nc(N)c2n1)c1ccc(C(=O)N[C@@H](CCC(=O)O)C(=O)O)cc1", "note": "(stereo partly drawn) [Pralatrexate]", "values": [{"measurement": "Difference", "setting": "[1]; [9]", "result": 0.03}, {"measurement": "Cholesterol-free", "setting": "[1]; [10]", "result": 0.04874}, {"measurement": "Complete", "setting": "[1]; [11]", "result": 0.07794}, {"measurement": "Cholesterol-free media + simvastatin (0.04 μM)", "setting": "[2]; [6]", "result": 0.194}, {"measurement": "Complete Media", "setting": "[2]; [7]", "result": 0.0957}, {"measurement": "Difference", "setting": "[2]; [12]", "result": "−0.10"}]}
{"smiles": "C[n+]1ccccc1/C=N/O.[Cl-]", "note": "[Pralidoxime (chloride)]", "values": [{"measurement": "Difference", "setting": "[1]; [13]", "result": "−0.31"}, {"measurement": "Cholesterol-free", "setting": "[1]; [14]", "result": 1.203}, {"measurement": "Complete", "setting": "[1]; NCI-H292 cells, complete media", "result": 0.8976}, {"measurement": "Cholesterol-free media + simvastatin (0.04 μM)", "setting": "[2]; [15]", "result": 1.051}, {"measurement": "Complete Media", "setting": "[2]; [16]", "result": 0.7574}, {"measurement": "Difference", "setting": "[2]; [17]", "result": "−0.29"}]}
{"smiles": "C[n+]1ccccc1C=NO.[I-]", "note": "[Pralidoxime (iodide)]", "values": [{"measurement": "Difference", "setting": "[1]; [13]", "result": "−0.07"}, {"measurement": "Cholesterol-free", "setting": "[1]; [18]", "result": 1.049}, {"measurement": "Complete", "setting": "[1]; [19]", "result": 0.9757}, {"measurement": "Cholesterol-free media + simvastatin (0.04 μM)", "setting": "[2]; [6]", "result": 0.9948}, {"measurement": "Complete Media", "setting": "[2]; [7]", "result": 0.8823}, {"measurement": "Difference", "setting": "[2]; [17]", "result": "−0.11"}]}
{"smiles": "CCCN[C@H]1CCc2nc(N)sc2C1", "note": "[Pramipexole (dihydrochloride hydrate)]", "values": [{"measurement": "Difference", "setting": "[1]; [9]", "result": 0.05}, {"measurement": "Cholesterol-free", "setting": "[1]; [10]", "result": 0.8255}, {"measurement": "Complete", "setting": "[1]; [11]", "result": 0.873}, {"measurement": "Cholesterol-free media + simvastatin (0.04 μM)", "setting": "[2]; [6]", "result": 1.173}, {"measurement": "Complete Media", "setting": "[2]; [7]", "result": 1.35}, {"measurement": "Difference", "setting": "[2]; [8]", "result": 0.18}]}
{"smiles": "CCCN[C@H]1CCc2nc(N)sc2C1", "note": "[Pramipexole (dihydrochloride)]", "values": [{"measurement": "Difference", "setting": "[1]; [3]", "result": "−0.49"}, {"measurement": "Cholesterol-free", "setting": "[1]; [4]", "result": 1.504}, {"measurement": "Complete", "setting": "[1]; [5]", "result": 1.014}, {"measurement": "Cholesterol-free media + simvastatin (0.04 μM)", "setting": "[2]; [20]", "result": 0.885}, {"measurement": "Complete Media", "setting": "[2]; [21]", "result": 0.866}, {"measurement": "Difference", "setting": "[2]; [22]", "result": "−0.02"}]}
{"smiles": "CCCN[C@H]1CCc2nc(N)sc2C1", "note": "[Pramipexole]", "values": [{"measurement": "Difference", "setting": "[1]; [3]", "result": "−0.68"}, {"measurement": "Cholesterol-free", "setting": "[1]; [4]", "result": 1.519}, {"measurement": "Complete", "setting": "[1]; [5]", "result": 0.8353}, {"measurement": "Cholesterol-free media + simvastatin (0.04 μM)", "setting": "[2]; [20]", "result": 1.074}, {"measurement": "Complete Media", "setting": "[2]; [21]", "result": 1.035}, {"measurement": "Difference", "setting": "[2]; [22]", "result": "−0.04"}]}
{"smiles": "CC(C)N(CCNC(=O)CN1CCCC1=O)C(C)C", "note": "[Pramiracetam]", "values": [{"measurement": "Difference", "setting": "[1]; [13]", "result": "−0.05"}, {"measurement": "Cholesterol-free", "setting": "[1]; [10]", "result": 1.059}, {"measurement": "Complete", "setting": "[1]; [11]", "result": 1.007}, {"measurement": "Cholesterol-free media + simvastatin (0.04 μM)", "setting": "[2]; cholesterol-free media with simvastatin 0.04 μM, […]", "result": 0.8266}, {"measurement": "Complete Media", "setting": "[2]; complete media, […]", "result": 0.938}, {"measurement": "Difference", "setting": "[2]; complete media minus cholesterol-free media + simvastatin, […]", "result": 0.11}]}
{"smiles": "CCCCOc1ccc(OCCCN2CCOCC2)cc1", "note": "[Pramocaine (hydrochloride)]", "values": [{"measurement": "Cholesterol-free", "setting": "[1]; [14]", "result": 1.301}, {"measurement": "Complete", "setting": "[1]; NCI-H292 cells, complete media", "result": 0.9298}, {"measurement": "Difference", "setting": "[1]; complete vs cholesterol-free media, greater than 0 enhanced anti-cancer activity, about 0 neutral, below 0 antagonists", "result": "−0.37"}, {"measurement": "Cholesterol-free media + simvastatin (0.04 μM)", "setting": "[2]; [6]", "result": 0.6469}, {"measurement": "Complete Media", "setting": "[2]; [7]", "result": 1.047}, {"measurement": "Difference", "setting": "[2]; [8]", "result": 0.40}]}
{"smiles": "O=C(Nc1cccc2c(=O)cc(-c3nnn[nH]3)oc12)c1ccc(OCCCCc2ccccc2)cc1", "note": "[Pranlukast (hemihydrate)]", "values": [{"measurement": "Difference", "setting": "[1]; [23]", "result": "−0.10"}, {"measurement": "Cholesterol-free", "setting": "[1]; [18]", "result": 1.075}, {"measurement": "Complete", "setting": "[1]; [19]", "result": 0.9755}, {"measurement": "Cholesterol-free media + simvastatin (0.04 μM)", "setting": "[2]; cholesterol-free media with simvastatin 0.04 μM, cell growth value in FDA drug screen", "result": 1.189}, {"measurement": "Complete Media", "setting": "[2]; complete media, cell growth value in FDA drug screen", "result": 1.285}, {"measurement": "Difference", "setting": "[2]; [8]", "result": 0.10}]}
{"smiles": "O=C(Nc1cccc2c(=O)cc(-c3nnn[nH]3)oc12)c1ccc(OCCCCc2ccccc2)cc1", "note": "[Pranlukast]", "values": [{"measurement": "Difference", "setting": "[1]; [23]", "result": "−0.10"}, {"measurement": "Cholesterol-free", "setting": "[1]; [18]", "result": 0.9973}, {"measurement": "Complete", "setting": "[1]; [19]", "result": 0.8953}, {"measurement": "Cholesterol-free media + simvastatin (0.04 μM)", "setting": "[2]; [6]", "result": 0.7995}, {"measurement": "Complete Media", "setting": "[2]; [7]", "result": 1.23}, {"measurement": "Difference", "setting": "[2]; [8]", "result": 0.43}]}
{"smiles": "CC(C(=O)O)c1ccc2c(c1)Cc1cccnc1O2", "note": "(stereo not drawn) [Pranoprofen]", "values": [{"measurement": "Cholesterol-free", "setting": "[1]; [10]", "result": 0.6134}, {"measurement": "Complete", "setting": "[1]; [11]", "result": 1.137}, {"measurement": "Difference", "setting": "[1]; [24]", "result": 0.52}, {"measurement": "Cholesterol-free media + simvastatin (0.04 μM)", "setting": "[2]; [15]", "result": 1.474}, {"measurement": "Complete Media", "setting": "[2]; [16]", "result": 1.136}, {"measurement": "Difference", "setting": "[2]; [12]", "result": "−0.34"}]}
{"smiles": "CC(=O)Oc1cc2c(s1)CCN(C(C(=O)C1CC1)c1ccccc1F)C2", "note": "(stereo not drawn) [Prasugrel (hydrochloride)]", "values": [{"measurement": "Cholesterol-free", "setting": "[1]; [10]", "result": 0.9393}, {"measurement": "Complete", "setting": "[1]; [11]", "result": 1.044}, {"measurement": "Difference", "setting": "[1]; [24]", "result": 0.10}, {"measurement": "Cholesterol-free media + simvastatin (0.04 μM)", "setting": "[2]; drug in cholesterol-free media with simvastatin 0.04 μM", "result": 1.213}, {"measurement": "Complete Media", "setting": "[2]; drug in complete media", "result": 1.05}, {"measurement": "Difference", "setting": "[2]; [12]", "result": "−0.16"}]}
